The source of these data is patent US20210276967A1 (OSPEDALE SAN RAFFAELE S.R.L., priority 2018, published 2021).

What is called EC50 is the concentration that produces a half-maximal response.

Series [1] can be described thus: Hepatocytes stability, human. Format: in vitro ADME. The note with it: data not shown. As to the method: Hepatic metabolism is often a major contributor to drug clearance from the body. Pooled cryopreserved human hepatocytes (commercially available for example from Bioreclamation IVT, LiverPool 20-donor Human Hepatocytes Product. No. X008000) are thawed and re-suspended in Hepatocyte Culture Medium (HCM) complete (commercially available, as for example from Lonza, HBM Hepatocytes Basal Medium Catalog No. CC-3199+HCM SingleQuots Catalog No. CC-4182). Compounds are diluted into the cell suspension (2.5 μl/2.5 mL, 1 million cells/mL) from 3 mM stock solution in DMSO to give a 3 μM concentration (0.1% DMSO). 150 μl (×2) of this mixture are taken and transferred into a 96-deep-well plate containing an equal volume of quenching solution (100% acetonitrile plus 0.1% formic acid) for time 0 incubation. […]
Stability is determined based on analysis of the disappearance of the compound as a function of incubation time, using area ratio (analyte peak area vs internal standard peak area). The elimination constant k is calculated by plotting mean disappearance values on a semi-logarithmic scale and fitting with a best fit linear regression. […] When the half-life could not be calculated, data are reported as: <0.5 or >4 hours. Intrinsic clearance given in μl/min/million cells is calculated using the Equation: Clint=KV/N. Where K=0.693/t1/2, V=incubation volume (ml) and N=number of hepatocytes/sample.

Series [2] in a line: Hepatocytes stability, mouse. The class given is in vitro ADME. The note with it: data not shown.
Series [3] relates to HBV genotype C. As to the kind of experiment: Antiviral activity in HepG2 cells transfected with HBV genotype C plasmid, extracellular HBV DNA qPCR. The class given is cell-based. The note with it: Hepatitis B virus, read-out: HBV inhibition EC50 (Mean ± StD). On the procedure:
HepG2 hepatoma cells transfected with HBV plasmids corresponding to the different isolates were used to perform antiviral assay against different HBV genotypes. HBV plasmids were obtained by cloning fragment containing of 1.1-mer HBV genome into the SacI/SaII sites of pcDNA3.1zeo(−) plasmid (V86520, Thermofisher Scientific). The HepG2 cell line was maintained in DMEM, supplemented with 10% of FBS, 1% glutamine and 1% penicillin/streptomycin.
HBV inhibition activity was determined on different HBV genotypes. For this purpose plasmids pcDNA3.1Zeo(−)-HBV1.1 expressing HBV genotypes A, B, C, D, E were transfected in HepG2 cell line and extracellular HBV quantification was performed by direct qPCR as described above. In detail, cells were seeded at 20,000 cells/well in polylisine coated 96-multiwell plates and 24 h later HBV plasmids were transfected with lipofection using manufacturer's procedure (Lipofectamine 3000 Reagent, Thermofisher Scientific). Five hours after transfection cells were extensively washed with PBS and compounds were added in 8-point dose-response curve in 0.5% DMSO as described above. After 4 days of incubation at 37° C. cells were subjected to cell viability assays and extracellular HBV quantification, in order to evaluate both the cytotoxic potential and the anti-viral activity of compounds, as described above. […]
(In general: Real-time PCR tracks product formation cycle by cycle.)

Series [4] concerns HBV (HBeAg, surrogate of cccDNA biogenesis). As to the kind of experiment: In vitro HBV infection of HepG2-NTCP cells, extracellular HBeAg ELISA (establishment of HBV cccDNA). The note with it: Hepatitis B virus, 144 h, 6 days, read-out: HBeAg* inhibition EC50 (Mean ± StD, μM) *surrogate of cccDNA biogenesis. Format: cell-based. From the text:
HepG2-NTCP hepatoma cell line was used to conduct the infection experiments. HepG2-NTCP was obtained by ectopic expression in HepG2 cells of the human Sodium Taurocholate Cotransporting Polypeptide receptor (hNTCP) using a lentiviral vector expressing human NTCP (Seeger et al., Molecular Therapy-Nucleic Acids, 2014). hNTCP was recently identified as HBV receptor (Yan H. et al., Elife. Nov. 13, 2012; 3). The complete viral life cycle of HBV could be obtained in the HepG2-NTCP cell line. HepG2-NTCP cells were maintained in DMEM, supplemented with 10% of FBS, 1% glutamine and 1% penicillin/streptomycin.
The ability of compounds to inhibit the establishment of HBV cccDNA in infected cells was investigated in an in vitro model of HBV infection. For this purpose HepG2-NTCP cell line, engineered to stably express the HBV receptor human sodium taurocholate cotrasporting polypeptide (hNTCP), was used and HBV particles were produced in HepAD38 following standard published procedure (Hepatitis B methods and protocols, Guo H., Cuconati, A.; 2017; Humana press). In detail HepG2-NTCP were seeded at 20.000 cells/well in collagen coated 96 multiwell plates. […] The ability of compounds to inhibit the establishment of HBV cccDNA was evaluated by quantification of extracellular HBeAg with ELISA (Elisa Kit HBE.CE. Manufacturer: DIA.PRO). […]

Regarding `Nc1ccc(C(=O)Nc2cc(F)c(F)c(F)c2)cc1S(N)(=O)=O` [Example E3, 4-amino-3-sulfamoyl-N-(3,4,5-trifluorophenyl)benzamide], in series [1], the “stability in human hepatocytes” value is “stable”. In addition, in series [2], the “stability in mouse hepatocytes” value was “stable”.
For the compound `Cc1cc(N)c(S(N)(=O)=O)cc1C(=O)Nc1cc(F)c(F)c(F)c1` [Example E17, 4-amino-2-methyl-5-sulfamoyl-N-(3,4,5-trifluorophenyl)benzamide], the results for the EC50 in series [3] and in series [4] were 28.2 ± 10.8 nM and 0.147 µM, respectively.
